Assay results reported in article PMC5947712, “High‐Throughput Kinetic Analysis for Target‐Directed Covalent Ligand Discovery” (Angewandte Chemie (International Ed. in English), 2018).
Several values for one entry are separate records, joined by “and”; a condition that tells them apart may be missing. Equal values may be shown once.

Tests used:
[1] = target: Cdk2(WT) (Homo sapiens, UniProt P24941); experiment: qIT thiol consumption assay with Cdk2(WT) (Cys177); assay type: binding; design: made in house; host or cells: E. coli Tuner(DE3); details: for k Cdk2(WT) (pseudo-first-order rate constant): compound 0.5 mM, Cdk2(WT) 5 μM, TCEP-agarose 2 % w/v
[2] = target: Cdk1‐cyclin A2 (Homo sapiens, UniProt P06493); experiment: In vitro kinase activity after 24 h incubation of active Cdk1:cyclin A2 with acrylamides; assay type: biochemical; details: for inhibition at 500 µM: 0.5 mM, 24 hours incubation, n=3, read-out: % inhibition ± SEM Cdk1
Method: Figure 6 a) Sequence alignment of Cdk family. Cys177 is highlighted in yellow. b) Published selectivity profiles of selected Cdk2 inhibitors.29 c) Active Cdk1/Cdk2:cyclin A2 was incubated with acrylamides 1 and 2 (0.5 mM) for 24 hours and then their in vitro kinase activity was measured (n=3). […]
Tables! 2R6.! Molecular! replacement! was! conducted! on! all! data! sets! using!Phaser[14]/MOLREP[15]!against! apoRCdk2! (PDB:!
4EK3)!and!the! model! was! iteratively! refined! using! Phenix.Refine[16]!with! manual! modelling! and! adjustments! carried! out! in!
COOT[17].! Descriptions! of! the! ligands! and! links! were! generated! with! JLigand[18]!and! refined! with! Refmac[19].! Electron! density! […]
Cdk2! (1! mg)! was! sequentially! incubated! with! aliquots! of! CAK1! (3!×!0.05! mg)! at! r.t.! for! 4! hours! at! a! time! in! 1.5! mL! of! a! 30! mM!
Tris/HCl! buffer! (pH! 7.5)! containing! 10! mM! MgCl2,! 10! mM! ATP! and! 3! mM! DTT.! As! CAK1! appeared! to! become! rapidly! inactiR
vated! in! the! presence! of! pCdk2,! three! repetitions! were! required! to! drive! the! reaction! to! completion.! The! resulting! solution! was!
incubated!with!50!µL!of!glutathioneRSepharose!beads!and!filtered!to!remove!remaining!CAK1.!
Phosphorylation! of! T160! results! in! increased! mobility! of! Cdk2! during! gel! electrophoresis! and! the! reaction! was! monitored! by!
SDSRpage.! The! site! of! modification! was! subsequently! verified! by! western! blot! using! an! antiRT160! antibody! (Cell! Signalling!
2561)!and!complete!monoRmodification!was!confirmed!by!intact!protein!mass!spectrometry.! […]
initiated!by!addition!of!0.5!mM!ATP!and!0.24!mM!substrate!peptide!([…])!and!the!absorbance!at!340!nm!was!moniR […]
plate! reader! […]
was!measured!from!the!gradient!during!the!linear!phase!of!product!accumulation.!! […]
ments,! the! wavelength! was! adjusted! to! 230! nm! and! elipticity! was! measured! at! […]
repeats!of!10!s!integrations!per!temperature.!The!meltRtemperature!(Tm)!was!determined!using!Prism!6.0!by!fitting!a!sigmoidal! […]
The! cell! lysates! were!diluted! to! […] RIPA! lysis! buffer,! as! quantified! by! the! […]

Cdk1‐cyclin A2, sequence (P06493 whole entry): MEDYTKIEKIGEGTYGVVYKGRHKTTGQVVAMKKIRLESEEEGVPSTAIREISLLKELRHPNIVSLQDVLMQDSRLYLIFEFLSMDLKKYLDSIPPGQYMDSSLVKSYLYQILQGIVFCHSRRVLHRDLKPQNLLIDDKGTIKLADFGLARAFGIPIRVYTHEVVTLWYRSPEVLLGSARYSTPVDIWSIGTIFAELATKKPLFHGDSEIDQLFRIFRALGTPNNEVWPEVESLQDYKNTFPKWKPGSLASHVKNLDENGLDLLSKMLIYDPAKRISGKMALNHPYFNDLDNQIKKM
Cdk1‐cyclin A2, sequence (P20248 whole entry partner): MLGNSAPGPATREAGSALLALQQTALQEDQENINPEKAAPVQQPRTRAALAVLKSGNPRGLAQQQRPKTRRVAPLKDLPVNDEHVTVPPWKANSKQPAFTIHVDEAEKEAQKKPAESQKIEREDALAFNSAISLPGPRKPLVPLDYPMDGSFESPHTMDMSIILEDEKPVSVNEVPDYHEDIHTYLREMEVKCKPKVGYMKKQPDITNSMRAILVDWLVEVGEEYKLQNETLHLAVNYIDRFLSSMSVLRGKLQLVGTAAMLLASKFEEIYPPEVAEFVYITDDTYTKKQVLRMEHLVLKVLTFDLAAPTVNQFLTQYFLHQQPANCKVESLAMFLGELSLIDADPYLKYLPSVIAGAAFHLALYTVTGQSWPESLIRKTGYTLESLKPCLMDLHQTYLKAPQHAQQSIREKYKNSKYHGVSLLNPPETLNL

| Compound | k Cdk2(WT) (pseudo-first-order rate constant) [1] [h⁻¹] | REF Cdk2(WT) (rate enhancement factor = k protein/k GSH) [1] | inhibition at 500 µM [2] [%] | inhibition of Cdk1‐cyclin A2 in vitro (in words) ([2]; prolonged exposure (24 hours)) |
| --- | --- | --- | --- | --- |
| C=CC(=O)N1CCN(C(=O)OC)c2ccccc21 [Acrylamide 2] | 0.233 | 2.6 and 2.63 | -2 ± 8 |  |
| C=CC(=O)N1CCN(C(=O)OC(C)(C)C)c2ccccc21 [Acrylamide 1] | 0.204 | 5.0 | 2 ± 10 | failed to inhibit |
